Measurements published in patent publication US20240360458A1, “TARGETED AND SLOW-RELEASE DRUG CONJUGATE COMPOSITION” (Centre for Eye and Vision Research Limited, priority 2023, published 2024).
Values belong to the substance of their own block, whether it stands above or below them.

Tests used:
[1] = test system: human corneal epithelial cells (HCECs); test: Fluorescence microscopy of FAM-labelled aptamer binding in HCECs; settings: FAM-labelled DNA, 30 min incubation
Description: (§1) HCECs were seeded on glass bottom culture dishes at 10,000 cells/compartment for 24 h. To test the binding of the aptamer to cells, HCECs were incubated with FAM-labelled T30 DNA sequence (negative control), Cornea-S1, or Cornea-S2 aptamers for 30 min. […] HCECs cultured in the isosmotic medium were used as a control. After incubation, the cells were washed 2 times with ice-cold PBS and were then stained with 1 μg mL^−1 Hoechst 33342 in PBS for nucleus staining for 1 min at RT. Fluorescence images were captured at the mid-plane of cells (magnification: 400×) by Nikon Eclipse Ti Inverted Research Microscope. The excitation wavelengths of Hoechst, Rh-PE, and FAM were 361 nm, 560 nm, and 498 nm respectively.
Furthermore, the binding of FAM-labelled aptamers in HCECs was visualized under a fluorescence microscope.

[2] = test system: human corneal epithelial cells (HCECs); test: Flow cytometry binding of FAM-labelled aptamers to HCECs; settings: FAM-labelled free aptamer, room temperature, read-out: dissociation constant (Kd) of aptamer in HCECs
Description: Due to the large size of cornea tissue, it is difficult to do quantitative binding assays. Thus, the binding of FAM-labelled aptamer to human corneal epithelial cells (HCECs) was tested using flow cytometry and fluorescence microscopy. BSA and salmon DNA were added to the blocking buffer to reduce non-specific binding before the incubation with FAM-labelled aptamers.
(§2) The cells were then incubated with blocking buffer (1% BSA, 0.1 mg mL^−1 Salmon sperm DNA in PBS) for 30 min at room temperature. After washing with PBS under centrifugation, 3×10^5 cells were incubated with pre-heated Cornea-S1 or Cornea-S2 aptamers or aptamer liposomes at various concentrations in PBS for 30 min at room temperature. After incubation, the cells were rinsed three times with 500 μL of PBS and then resuspended in 200 μL of PBS. The fluorescence signal was analyzed with a NovoCyte Flow Cytometer (Agilent Technologies). The equilibrium dissociation constants (Kd) value of each aptamer or aptamer liposome was obtained by GraphPad Prism 9 according to […]

[3] = test system: BAC-induced dry eye rabbit model; test: Corneal fluorescein staining in BAC-induced dry eye rabbits; type: in vivo, New Zealand White rabbits; settings: 4-week 0.1% BAC, then topical treatment twice daily up to 3 weeks
Description: (§3) A 4-week 0.1% BAC treatment could induce stable dry eye condition in rabbits and no severe corneal damage was observed. Thus, a 4-week 0.1% BAC installation followed by a 3-week topical treatment of Restasis® or liposomes was used in the present invention. Corneal fluorescein staining, tear breakup time and tear production were measured before and after BAC installation and weekly throughout the 3-week treatment period.
(§4) Ten male New Zealand White rabbits, weighing between 3 to 3.5 kg each, were procured from Charles River Laboratories. They were housed within the Centralized Animal Facility at the University of Waterloo, where they were subjected to a 12-hour cycle of alternating light and darkness. The temperature was maintained at 23° C.±2° C., with a relative humidity of 60%±10%. The entire experimental procedure was conducted by ethical guidelines and received approval from the Animal Care Committee under Application No. 44737. Upon a 2-week acclimation period, eight rabbits were chosen at random to induce stable dry eye disease. This was achieved through the topical application of 0.1% benzalkonium chloride (BAC) at a dosage of 20 μL per installation. This protocol was repeated twice a day (at 10 a.m. and 5 p.m.) for the subsequent 4 weeks. The remaining two rabbits constituted the control group and received PBS through a similar administration schedule. […]

[4] = test system: HCECs in hyperosmolarity medium; test: Cellular uptake and retention of CsA liposomes in dry eye HCECs model; type: cell-based, human; settings: DED model
Description: To construct a dry eye disease (DED) cell model, HPV-immortalized human corneal epithelial cells (HCECs) (passages 6-10) were maintained in DMEM/F12 medium supplemented with 1% FBS and 1% penicillin/streptomycin at 37° C., 95% humidity, and 5% CO2. The cell medium was changed every 2 days. To establish an in vitro DED model, sodium chloride was added to the culture medium to increase the osmolarity of the medium by 200 mOsM.
as §1, with “The excitation wavelengths of Hoechst, Rh-PE, and FAM were 361 nm, 560 nm, and 498 nm respectively.” left out
The CsA-loaded liposomes were tested for cellular uptake and retention in a dry eye HCECs model induced by a high osmolarity medium. […] Additionally, liposome retention in cells was assessed by pretreating the cells with liposomes for 4 hours, followed by a 20-hour incubation period in liposome-free medium.

[5] = test system: cell surface protein of HCECs; test: Flow cytometry of aptamer binding to intact vs trypsin-treated HCECs; parameters: species or system human
Description: To understand the type of target, the HCECs were treated with trypsin, which degraded surface proteins.
as §2

[6] = test system: human corneal epithelial cells (HCECs); test: Flow cytometry binding affinity of aptamer CsA liposomes in HCECs; settings: liposome vs free aptamer
Description: The binding affinity of each aptamer liposome in HCECs was measured by flow cytometry. The cells were incubated with liposomes at room temperature, instead of in a 37° C. incubator, to reduce the internalization of liposomes by endocytosis. […] This apparent Kd is much lower than that observed in the free aptamers, for example, Cornea-S1 being 300-fold lower, and this was attributed to the stronger polyvalent binding increasing the avidity of the aptamer-functionalized liposomes.
as §2

[7] = test system: unidentified trypsin-sensitive surface protein(s) of human corneal epithelial cells (HCECs) (Homo sapiens); test: flow
[8] = test system: BAC-induced dry eye rabbit model; test: Tear production (Schirmer tear strips) in BAC-induced dry eye rabbits; type: in vivo, New Zealand White rabbits; settings: after 4-week 0.1% BAC installation
Description: as §3
as §4, with “disease.” for “disease. This was achieved through the topical application of 0.1% benzalkonium chloride (BAC) at a dosage of 20 μL per installation. This protocol was repeated twice a day (at 10 a.m. and 5 p.m.) for the subsequent 4 weeks. The remaining two rabbits constituted the control group and received PBS through a similar administration schedule.”
The aqueous tear production was measured with Schirmer Tear Strips (SPORTS WORLD VISION). The strips were placed inside the margin of the nictitating membrane of the lower eyelid of the rabbit for 5 min and the wetting length of the strip was measured as an indication of tear production.

[9] = test system: BAC-induced dry eye rabbit model; test: Tear break-up time (TBUT) in BAC-induced dry eye rabbits; type: in vivo, New Zealand White rabbits; settings: after 4 weeks of 0.1% BAC installation
Description: as §3
as §4, with “disease.” for “disease. This was achieved through the topical application of 0.1% benzalkonium chloride (BAC) at a dosage of 20 μL per installation. This protocol was repeated twice a day (at 10 a.m. and 5 p.m.) for the subsequent 4 weeks. The remaining two rabbits constituted the control group and received PBS through a similar administration schedule.”
Rabbits were sedated by the aforementioned procedure. TBUT was evaluated utilizing a handheld EasyTear® VIEW+ Tearscope with a grid pattern, in conjunction with the S4 OPTIK HR Elite Mega Digital Vision system. […] This measurement was repeated thrice to ensure accuracy, and an average value was calculated for analysis.

[10] = 3'-FAM, whole-cell apparent Kd, PBS, room temperature, 30 min, trypsin treatment lowers binding

Substance: Cornea-S1: DNA aptamer from cornea tissue-SELEX, family 1: GACGACGGCAAGGGGAAAGTGGTCGTAATCACGACGGTCGTC (DNA, backbone not given here; further chemistry not fully specified)
FAM signals in HCECs under fluorescence microscope ([1]; listed as Conrea-S1): intensive FAM signals | FAM signals in HCECs under fluorescence microscope ([1]; listed as Corena-S1): observably higher than Conrea-S2 and S2.2 aptamer | Kd [2]: 362 nM | corneal fluorescein staining / corneal integrity [3]: markedly diminished to residual staining or isolated dots | extended retention of liposomes [4]: up to 24 hours | FAM signals in trypsin-treated cells compared with intact cells [5]: significantly lower FAM signals | apparent Kd of liposome lower than that of the free aptamer [6]: 300 fold

Substance: Cornea-S2: DNA aptamer from cornea tissue-SELEX, family 2: GACGACTTATGCTTGGGACCTGATCCGGACTACGGTGTCGTC (DNA, backbone not given here; further chemistry not fully specified)
FAM signals in HCECs under fluorescence microscope [1]: intensive FAM signals | Kd [2]: 174 nM | extended retention of liposomes [4]: up to 24 hours | FAM signals in trypsin-treated cells compared with intact cells [5]: significantly lower FAM signals

Substance: GACGACGGCAAGGGGAAAGTGGTCGTAATCACGACGGTCGTC [FAM-Cornea-S1]
Kd [7, 10]: 362 nM

Substance: GACGACGGCAAGGGGAAAGTGGTCGTAATCACGACGGTCGTCTTTTT [Cornea-S1-chol liposome]
Kd ([7]; 3'-cholesterol, inserted in CsA liposome (about 690 strands per liposome), polyvalent liposome on whole cells, PBS, room temperature): 1.2 nM

Substance: GACGACTTATGCTTGGGACCTGATCCGGACTACGGTGTCGTC [FAM-Cornea-S2]
Kd [7, 10]: 174 nM

Substance: GACGACTTATGCTTGGGACCTGATCCGGACTACGGTGTCGTCTTTTT [Cornea-S2-chol liposome]
Kd ([7]; 3'-cholesterol, inserted in CsA liposome (about 690 strands per liposome), polyvalent liposome on whole cells, p92 gives 15.1 nM): 15 nM

decrease in tear production [8]: 25-35% | reduction in TBUT compared to baseline [9]: 60-70%
Substance: benzalkonium chloride [BAC]
